In paper doi:10.1101/2022.12.25.521909v1 (biorxiv, 2022):

Target: T1, human ABCC4 (ABCC4/MRP4) (Homo sapiens, UniProt O15439)
T1 sequence (O15439 1-1325): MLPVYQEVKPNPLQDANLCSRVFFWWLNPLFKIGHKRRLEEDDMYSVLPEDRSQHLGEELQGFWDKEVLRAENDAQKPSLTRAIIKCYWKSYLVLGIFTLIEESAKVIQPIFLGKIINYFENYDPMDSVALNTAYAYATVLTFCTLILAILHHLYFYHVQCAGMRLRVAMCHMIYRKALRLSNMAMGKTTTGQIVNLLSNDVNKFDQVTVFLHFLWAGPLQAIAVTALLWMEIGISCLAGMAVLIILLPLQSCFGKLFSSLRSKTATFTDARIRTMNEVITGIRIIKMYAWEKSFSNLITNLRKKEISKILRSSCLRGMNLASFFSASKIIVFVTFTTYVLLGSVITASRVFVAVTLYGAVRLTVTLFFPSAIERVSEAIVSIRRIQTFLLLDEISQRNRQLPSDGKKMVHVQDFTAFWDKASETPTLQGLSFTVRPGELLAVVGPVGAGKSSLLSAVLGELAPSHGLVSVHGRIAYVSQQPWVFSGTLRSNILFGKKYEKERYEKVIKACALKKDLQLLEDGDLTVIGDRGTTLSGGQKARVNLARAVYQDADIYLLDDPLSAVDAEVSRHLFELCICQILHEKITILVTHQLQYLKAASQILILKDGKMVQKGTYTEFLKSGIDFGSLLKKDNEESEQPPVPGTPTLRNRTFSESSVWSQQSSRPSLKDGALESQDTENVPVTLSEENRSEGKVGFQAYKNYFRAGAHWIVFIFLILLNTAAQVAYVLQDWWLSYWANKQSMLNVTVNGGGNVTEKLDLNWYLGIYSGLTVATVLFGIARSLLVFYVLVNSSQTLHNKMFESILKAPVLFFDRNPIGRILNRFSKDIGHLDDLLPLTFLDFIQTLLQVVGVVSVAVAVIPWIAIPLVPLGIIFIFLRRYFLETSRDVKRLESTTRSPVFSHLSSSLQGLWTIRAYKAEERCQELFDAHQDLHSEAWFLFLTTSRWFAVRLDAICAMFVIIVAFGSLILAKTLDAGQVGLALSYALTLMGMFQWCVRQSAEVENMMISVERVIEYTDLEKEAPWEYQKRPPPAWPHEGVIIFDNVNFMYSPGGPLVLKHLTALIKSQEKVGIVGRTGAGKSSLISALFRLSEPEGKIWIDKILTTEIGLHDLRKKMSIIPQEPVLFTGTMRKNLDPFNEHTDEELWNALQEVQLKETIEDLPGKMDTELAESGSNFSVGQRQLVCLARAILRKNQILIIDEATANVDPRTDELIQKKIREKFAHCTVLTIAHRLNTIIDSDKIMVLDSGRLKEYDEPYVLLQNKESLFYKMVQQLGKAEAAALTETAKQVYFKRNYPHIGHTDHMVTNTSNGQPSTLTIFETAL
Assay: inhibition of basal ATPase activity, ABCC4 in lipid nanodiscs, logistic fit
Type: biochemical

IC50: ~2.1 µM
Structure (SMILES): OCCN(CCO)c1nc(N2CCCCC2)c2nc(N(CCO)CCO)nc(N3CCCCC3)c2n1 [dipyridamole]
